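These data come from cells grown in 96-well plates and exposed to compound for 48 hours at five concentrations. The concentration for 50% growth inhibition is given as GI50. The concentration for full growth arrest is given as TGI.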
Tests used:
Assay in all cases: DTP human tumour cell line panel, 48 h
[1] = test system: KM12 colon
[2] = test system: COLO 205 colon
[3] = test system: A549 NSCLC
[4] = test system: OVCAR-4 ovarian
[5] = test system: DU-145 prostate
[6] = test system: MOLT-4 leukemia
[7] = test system: MDA-MB-231 breast
[8] = test system: SF-539 CNS
[9] = test system: A498 renal
[10] = test system: SF-295 CNS
[11] = test system: OVCAR-8 ovarian
[12] = test system: SK-MEL-28 melanoma
[13] = test system: HS 578T breast
[14] = test system: MALME-3M melanoma
[15] = test system: SNB-19 CNS
[16] = test system: HCC-2998 colon
[17] = test system: NCI/ADR-RES ovarian
[18] = test system: BT-549 breast
[19] = test system: CCRF-CEM leukemia
[20] = test system: NCI-H522 lung
[21] = test system: SN12C renal
[22] = test system: NCI-H226 lung
[23] = test system: K-562 leukemia
[24] = test system: MCF7 breast
[25] = test system: NCI-H23 lung
[26] = test system: SW-620 colon
[27] = test system: SK-OV-3 ovarian
[28] = test system: UACC-62 melanoma
[29] = test system: IGROV1 ovarian
[30] = test system: MDA-MB-435
[31] = test system: UACC-257 melanoma
[32] = test system: HCT-116 colon
[33] = test system: OVCAR-3 ovarian
[34] = test system: HL-60(TB) leukemia
[35] = test system: SK-MEL-2 melanoma
[36] = test system: ACHN renal
[37] = test system: M14 melanoma
[38] = test system: RPMI-8226 leukemia
[39] = test system: T-47D breast
[40] = test system: NCI-H460 lung
[41] = test system: 786-0 renal
[42] = test system: HOP-92 NSCLC
[43] = test system: OVCAR-5 ovarian
[44] = test system: TK-10 renal
[45] = test system: PC-3 prostate
[46] = test system: UO-31 renal
[47] = test system: SK-MEL-5 melanoma
[48] = test system: HOP-62 NSCLC
[49] = test system: LOX IMVI melanoma
[50] = test system: EKVX NSCLC
[51] = test system: HCT-15 colon
[52] = test system: SNB-75 CNS
[53] = test system: SR leukemia
[54] = test system: HT29 colon
[55] = test system: CAKI-1 renal
[56] = test system: U251 CNS
[57] = test system: RXF 393 renal
[58] = test system: SF-268 CNS

With `CSc1nc2sc3c(c2c(=O)n1-c1ccc(C(C)C)cc1)CCC(=O)C3` the GI50 [1] was 1.9 µM, the TGI [1] was 3.95 µM and the GI50 [2] was 1.89 µM. It also gave a TGI [2] of 3.63 µM, a GI50 [3] of 3.77 µM and a TGI [3] of 20.7 µM. For the same molecule, the GI50 [4] was 2.34 µM, the TGI [4] was 5.86 µM and the GI50 [5] was 3.75 µM. The TGI [5] was over 100 µM, the GI50 [6] was 2.64 µM and the TGI [6] was 6.71 µM. The GI50 [7] was 2.47 µM, the TGI [7] was 6.3 µM and the GI50 [8] was 2.05 µM. For the same molecule, the TGI [8] was 4.1 µM, the GI50 [9] was 20.4 µM and the TGI [9] was 82.7 µM. It also gave a GI50 [10] of 2.2 µM, a TGI [10] of 4.76 µM and a GI50 [11] of 2.12 µM. It also gave a TGI [11] of 4.49 µM, a GI50 [12] of 2.45 µM and a TGI [12] of 4.62 µM. For the same molecule, the GI50 [13] was 2.96 µM, the TGI [13] was 9.64 µM and the GI50 [14] was 3.11 µM. The TGI [14] was 8.25 µM, the GI50 [15] was 2.15 µM and the TGI [15] was 4.56 µM. For the same molecule, the GI50 [16] was 2.47 µM, the TGI [16] was 5.02 µM and the GI50 [17] was 2.36 µM. For the same molecule, the TGI [17] was 5.13 µM, the GI50 [18] was 2.94 µM and the TGI [18] was 8.36 µM. It also gave a GI50 [19] of 2.42 µM, a TGI [19] of 6.42 µM and a GI50 [20] of 1.96 µM. The TGI [20] was 3.72 µM, the GI50 [21] was 2.45 µM and the TGI [21] was 6.02 µM. The GI50 [22] was 1.99 µM, the TGI [22] was 4.68 µM and the GI50 [23] was 3.02 µM. It also gave a TGI [23] of 9.04 µM, a GI50 [24] of 3.14 µM and a TGI [24] of 10.6 µM. It also gave a GI50 [25] of 2.2 µM, a TGI [25] of 4.53 µM and a GI50 [26] of 2.23 µM. The TGI [26] was 4.56 µM, the GI50 [27] was 2.63 µM and the TGI [27] was 6.92 µM. The GI50 [28] was 1.81 µM, the TGI [28] was 3.49 µM and the GI50 [29] was 2.02 µM. For the same molecule, the TGI [29] was 4.88 µM, the GI50 [30] was 1.85 µM and the TGI [30] was 3.71 µM. The GI50 [31] was 3.21 µM, the TGI [31] was 9.81 µM and the GI50 [32] was 1.94 µM. It also gave a TGI [32] of 3.73 µM, a GI50 [33] of 1.94 µM and a TGI [33] of 3.53 µM. For the same molecule, the GI50 [34] was 2.72 µM, the TGI [34] was 7.57 µM and the GI50 [35] was 2.5 µM. It also gave a TGI [35] of 5.77 µM, a GI50 [36] of 2.25 µM and a TGI [36] of 4.48 µM. It also gave a GI50 [37] of 2.82 µM, a TGI [37] of 7.6 µM and a GI50 [38] of 2.1 µM. For the same molecule, the TGI [38] was 5.07 µM, the GI50 [39] was 1.81 µM and the TGI [39] was 3.74 µM. For the same molecule, the GI50 [40] was 2.27 µM, the TGI [40] was 5.1 µM and the GI50 [41] was 3.06 µM. For the same molecule, the TGI [41] was 9.79 µM, the GI50 [42] was 2.21 µM and the TGI [42] was 5.24 µM. For the same molecule, the GI50 [43] was 2.71 µM, the TGI [43] was 6.58 µM and the GI50 [44] was 2.58 µM. For the same molecule, the TGI [44] was 6.53 µM, the GI50 [45] was 1.6 µM and the TGI [45] was 3.21 µM. It also gave a GI50 [46] of 1.57 µM, a TGI [46] of 3.26 µM and a GI50 [47] of 1.71 µM. The TGI [47] was 3.36 µM, the GI50 [48] was 2.05 µM and the TGI [48] was 4.05 µM. It also gave a GI50 [49] of 1.77 µM, a TGI [49] of 3.27 µM and a GI50 [50] of 3.02 µM. For the same molecule, the TGI [50] was over 100 µM, the GI50 [51] was 2.14 µM and the TGI [51] was 4.04 µM. The GI50 [52] was 2.22 µM, the TGI [52] was 5.21 µM and the GI50 [53] was 2.14 µM. It also gave a TGI [53] of 6.02 µM, a GI50 [54] of 2.97 µM and a TGI [54] of 6.7 µM. The GI50 [55] was 2.38 µM, the TGI [55] was 6.03 µM and the GI50 [56] was 1.7 µM. The TGI [56] was 3.07 µM, the GI50 [57] was 2.21 µM and the TGI [57] was 5.37 µM. It also gave a GI50 [58] of 2.18 µM and a TGI [58] of 5.2 µM.

Work on `Cc1cc(N(CCCNc2ccnc3cc(Cl)ccc23)Cc2ccco2)nc(N2CCN(C)CC2)n1` yielded a GI50 [1] of 3.73 µM, a TGI [1] of 16.7 µM and a GI50 [2] of 1.89 µM. For the same molecule, the TGI [2] was 3.94 µM, the GI50 [3] was 4.34 µM and the TGI [3] was 15.4 µM. The GI50 [4] was 3.59 µM, the TGI [4] was 19.6 µM and the GI50 [5] was 5.69 µM. For the same molecule, the TGI [5] was 18.8 µM, the GI50 [6] was 2.74 µM and the TGI [6] was 14 µM. The GI50 [7] was 2.63 µM, the TGI [7] was 8.72 µM and the GI50 [8] was 1.68 µM. For the same molecule, the TGI [8] was 3.23 µM, the GI50 [9] was 9.15 µM and the TGI [9] was 45.5 µM. It also gave a GI50 [10] of 1.87 µM, a TGI [10] of 3.84 µM and a GI50 [11] of 3.87 µM. The TGI [11] was 16.8 µM, the GI50 [12] was 1.74 µM and the TGI [12] was 3.41 µM. For the same molecule, the GI50 [13] was 2.43 µM, the TGI [13] was 7.85 µM and the GI50 [14] was 1.83 µM. For the same molecule, the TGI [14] was 3.5 µM, the GI50 [15] was 5 µM and the TGI [15] was 16.9 µM. It also gave a GI50 [16] of 1.98 µM, a TGI [16] of 4.88 µM and a GI50 [17] of 4.13 µM. It also gave a TGI [17] of 18.8 µM, a GI50 [18] of 2.07 µM and a TGI [18] of 6.05 µM. The GI50 [19] was 2.84 µM, the TGI [19] was 10.2 µM and the GI50 [20] was 3.62 µM. For the same molecule, the TGI [20] was 14.4 µM, the GI50 [21] was 4.24 µM and the TGI [21] was 17 µM. The GI50 [22] was 12.4 µM, the TGI [22] was 24.8 µM and the GI50 [23] was 2.07 µM. The TGI [23] was 10.4 µM, the GI50 [24] was 3.01 µM and the TGI [24] was 13.9 µM. It also gave a GI50 [25] of 5.52 µM, a TGI [25] of 22.1 µM and a GI50 [26] of 2.82 µM. The TGI [26] was 12.2 µM, the GI50 [27] was 5.99 µM and the TGI [27] was 31.2 µM. The GI50 [28] was 1.99 µM, the TGI [28] was 3.74 µM and the GI50 [29] was 2.39 µM. It also gave a TGI [29] of 12.3 µM, a GI50 [30] of 1.69 µM and a TGI [30] of 3.23 µM. The GI50 [31] was 1.97 µM, the TGI [31] was 3.8 µM and the GI50 [32] was 2.48 µM. For the same molecule, the TGI [32] was 10.7 µM, the GI50 [33] was 2.87 µM and the TGI [33] was 12.1 µM. It also gave a GI50 [34] of 2.06 µM, a TGI [34] of 4.37 µM and a GI50 [35] of 1.95 µM. It also gave a TGI [35] of 4.21 µM, a GI50 [36] of 2.46 µM and a TGI [36] of 6.51 µM. For the same molecule, the GI50 [37] was 1.85 µM, the TGI [37] was 3.44 µM and the GI50 [38] was 2.09 µM. For the same molecule, the TGI [38] was 5.15 µM, the GI50 [39] was 2.15 µM and the TGI [39] was 5.68 µM. For the same molecule, the GI50 [40] was 3.12 µM, the TGI [40] was 11.4 µM and the GI50 [41] was 1.83 µM. It also gave a TGI [41] of 3.63 µM, a GI50 [42] of 1.92 µM and a TGI [42] of 4.99 µM. For the same molecule, the GI50 [43] was 6.08 µM, the TGI [43] was 21.8 µM and the GI50 [44] was 2.08 µM. The TGI [44] was 4.82 µM, the GI50 [45] was 4.12 µM and the TGI [45] was 17.3 µM. For the same molecule, the GI50 [46] was 2.02 µM, the TGI [46] was 5.33 µM and the GI50 [47] was 1.75 µM. It also gave a TGI [47] of 3.17 µM, a GI50 [48] of 3.65 µM and a TGI [48] of 14.3 µM. It also gave a GI50 [49] of 1.69 µM, a TGI [49] of 3.53 µM and a GI50 [50] of 4.99 µM. It also gave a TGI [50] of 22 µM, a GI50 [51] of 2.07 µM and a TGI [51] of 10.5 µM. It also gave a GI50 [52] of 1.29 µM, a TGI [52] of 5.56 µM and a GI50 [53] of 2.08 µM. The TGI [53] was 5.62 µM, the GI50 [54] was 2.73 µM and the TGI [54] was 11 µM. The GI50 [56] was 2.67 µM, the TGI [56] was 6.92 µM and the GI50 [57] was 1.79 µM. For the same molecule, the TGI [57] was 3.55 µM, the GI50 [58] was 2.9 µM and the TGI [58] was 15.7 µM.
